Measurements published in patent publication US20230321008A1, “INHIBITORS OF ACID SPHINGOMYELINASE FOR PREVENTING AND TREATING THE COVID-19 DISEASE” (priority 2020, published 2023).
Entries after “also recorded” stand apart in the source; their conditions may differ.

What was measured:
[1] = molecular target: T1, acid sphingomyelinase (ASM) (Homo sapiens, UniProt P17405); settings: cited from earlier work
T1 sequence (P17405 47-631): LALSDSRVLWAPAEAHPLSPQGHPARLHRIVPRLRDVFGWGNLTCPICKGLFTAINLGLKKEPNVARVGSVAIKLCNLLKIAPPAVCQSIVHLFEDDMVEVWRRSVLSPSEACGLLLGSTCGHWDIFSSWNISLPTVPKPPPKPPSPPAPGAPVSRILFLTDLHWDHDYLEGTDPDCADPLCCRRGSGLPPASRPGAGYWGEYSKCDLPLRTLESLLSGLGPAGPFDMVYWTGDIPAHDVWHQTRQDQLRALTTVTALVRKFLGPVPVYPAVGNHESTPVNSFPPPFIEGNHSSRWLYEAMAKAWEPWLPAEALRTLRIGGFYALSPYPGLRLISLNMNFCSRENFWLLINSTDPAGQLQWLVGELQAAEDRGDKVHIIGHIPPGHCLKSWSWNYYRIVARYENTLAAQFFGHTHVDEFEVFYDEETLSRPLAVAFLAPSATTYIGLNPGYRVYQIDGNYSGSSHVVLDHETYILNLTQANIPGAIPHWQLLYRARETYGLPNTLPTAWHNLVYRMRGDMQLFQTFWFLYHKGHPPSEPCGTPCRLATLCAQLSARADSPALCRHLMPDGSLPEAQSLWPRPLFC

severe COVID-19 = experiment: Example 2: multicenter observational retrospective cohort study, FIASMA medication use at baseline and intubation or death in patients hospitalized for severe COVID-19; assay type: in vivo, human; settings: vs no FIASMA medication
Source text: We included all adults aged 18 years or over who have been hospitalized in these medical centers for severe COVID-19. COVID-19 was ascertained by a positive reverse-transcriptase-polymerase-chain-reaction (RT-PCR) test from analysis of nasopharyngeal or oropharyngeal swab specimens. Severe COVID-19 at admission was defined as having at least one of the following criteria: respiratory rate > 24 breaths/min or < 12 breaths/min, resting peripheral capillary oxygen saturation in ambient air < 90%, temperature > 40° C., systolic blood pressure < 100 mm Hg or high lactate levels. AP-HP clinical Data Warehouse initiatives ensure patient information and informed consent regarding the different approved studies through a transparency portal in accordance with European Regulation on data protection and authorization n°1980120 from National Commission for Information Technology and Civil Liberties (CNIL).
We used data from the AP-HP Health Data Warehouse (‘Entrepôt de Données de Santé (EDS)’). This warehouse contains all available clinical data on all inpatient visits for COVID-19 to any Greater Paris University hospital. The data included patient demographic characteristics, vital signs, laboratory test and RT-PCR test results, medication administration data, medication lists during current and past hospitalizations in AP-HP hospitals, current diagnoses, discharge disposition, and death certificates.
We obtained the following data for each patient at the time of the hospitalization: sex; age, which was categorized into 4 classes based on the OpenSAFELY study results (i.e. 18-50, 51-70, 71-80, 81+); hospital, which was categorized into 4 classes following the administrative clustering of AP-HP hospitals in Paris and its suburbs based on their geographical location (i.e., AP-HP Centre - Paris University, Henri Mondor University Hospitals and at home hospitalization; AP-HP Nord and Hôpitaux Universitaires Paris Seine-Saint-Denis; AP-HP Paris Saclay University; and AP-HP Sorbonne University); obesity, which was defined as having a body mass index higher than 30 kg/m^2 or an International Statistical Classification of Diseases and Related Health Problems (ICD-10) diagnosis code for obesity (E66.0, E66.1, E66.2, E66.8, E66.9); self-reported current smoking status; and any medication prescribed according to compassionate use or as part of a clinical trial (e.g. hydroxychloroquine, azithromycin, remdesivir, tocilizumab, sarilumab, or dexamethasone). To take into account possible confounding by indication bias for FIASMA medication, we recorded whether patients had any current diagnosis, based on ICD-10 diagnosis codes, for neoplasms and diseases of the blood (C00-D89); mental disorders (F01-F99); diseases of the nervous system (G00-G99); cardiovascular disorders (I00-I99); respiratory disorders (J00-J99); digestive disorders (K00-K95); dermatological disorders (L00-L99); diseases of the musculoskeletal system (M00-M99); diseases of the genitourinary system (N00-N99); endocrine disorders (E00-E89); and eye-ear-nose-throat disorders (H00-H95).
All medical notes and prescriptions are computerized in Greater Paris University hospitals. Medications including their dosage, frequency, date, and mode of administration were identified from medication administration data or scanned handwritten medical prescriptions, through two deep learning models based on BERT contextual embeddings, one for the medications and another for their mode of administration. The model was trained on the APmed corpus, a previously annotated dataset for this task. Extracted medications names were then normalized to the Anatomical Therapeutic Chemical (ATC) terminology using approximate string matching.
FIASMA medication use was defined as receiving at least one FIASMA medication at study baseline, i.e. within the first 24 hours of hospital admission, and before the end of the index hospitalization, intubation or death.

Sigma-1 receptors (S1R) = Sigma-1 receptors (S1R) (Homo sapiens, UniProt Q99720); settings: cited from earlier work
Sequence of Sigma-1 receptors (S1R) (Q99720 whole entry, the tested form may be a part): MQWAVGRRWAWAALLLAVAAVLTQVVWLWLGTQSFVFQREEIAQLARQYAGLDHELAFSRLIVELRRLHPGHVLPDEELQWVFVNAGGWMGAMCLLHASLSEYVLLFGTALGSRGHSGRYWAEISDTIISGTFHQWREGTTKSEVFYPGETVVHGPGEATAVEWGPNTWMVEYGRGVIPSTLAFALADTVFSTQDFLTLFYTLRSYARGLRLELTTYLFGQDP

[2] = test system: ceramide-enriched membrane domains; settings: in vitro; cited from earlier work
SARS-CoV-2 [3] = settings: cited from earlier work
SARS-CoV-2 [4] = settings: in vitro; cited from earlier work
glia activation = settings: dependent on glia activation; cited from earlier work
COVID-19 = settings: human, in vivo; cited from earlier work

Row | SMILES | In vitro inhibition of acid sphingomyelinase (in words) [1] | Association of use at baseline with risk of intubation or death (in words) (severe COVID-19) | Affinity for Sigma-1 receptors (in words) (Sigma-1 receptors (S1R)) | other results
1 | CN(C)C(=O)C(CCN1CCC(O)(c2ccc(Cl)cc2)CC1)(c1ccccc1)c1ccccc1 [Loperamide, loperamide] | in vitro inhibit acid sphingomyelinase with varying degrees | effective preventive and curative treatments for reducing risk of death or intubation | – | –
2 | CNCC[C@H](Oc1cccc2ccccc12)c1cccs1 [Duloxetine, duloxetine] | in vitro inhibit acid sphingomyelinase with varying degrees | – | low or no affinity for S1R | –
3 | CNCCCC12CCC(c3ccccc31)c1ccccc12 [maprotiline] | inhibited ASM; also recorded: in vitro inhibit acid sphingomyelinase with varying degrees | – | – | Formation of ceramide-enriched membrane domains (in words) [2]: inhibited ASM and the formation of ceramide-enriched membrane domains; Infection of Vero cells with SARS-CoV-2 (in words) (SARS-CoV-2 [3]): prevented Vero cells from being infected with SARS-CoV-2
4 | Fc1ccc([C@@H]2CCNC[C@H]2COc2ccc3c(c2)OCO3)cc1 [Paroxetine, paroxetine] | in vitro inhibit acid sphingomyelinase with varying degrees | – | low or no affinity for S1R | Inhibition of viral replication (in words) (SARS-CoV-2 [4]): inhibition of viral replication was not observed
5 | Clc1ccc2c(c1)CCc1cccnc1C2=C1CCNCC1 [Desloratadine, desloratadine] | – | effective preventive and curative treatments for reducing risk of death or intubation | – | –
6 | CCCCc1oc2ccccc2c1C(=O)c1cc(I)c(OCCN(CC)CC)c(I)c1 [Amiodarone, amiodarone] | – | effective preventive and curative treatments for reducing risk of death or intubation | – | –
7 | CNCCCN1c2ccccc2CCc2ccccc21 [desipramine] | inhibited ASM; also recorded: in vitro inhibit acid sphingomyelinase with varying degrees | – | – | Formation of ceramide-enriched membrane domains (in words) [2]: inhibited ASM and the formation of ceramide-enriched membrane domains; Infection of Vero cells with SARS-CoV-2 (in words) (SARS-CoV-2 [3]): prevented Vero cells from being infected with SARS-CoV-2
8 | CN(C)CCCN1c2ccccc2Sc2ccc(Cl)cc21 [Chlorpromazine, chlorpromazine] | in vitro inhibit acid sphingomyelinase with varying degrees | effective preventive and curative treatments for reducing risk of death or intubation | low or no affinity for S1R | Anti-inflammatory effect (in words) (glia activation): anti-inflammatory effect was observed
9 | CN[C@H]1CC[C@@H](c2ccc(Cl)c(Cl)c2)c2ccccc21 [Sertraline, sertraline] | inhibited ASM; also recorded: in vitro inhibit acid sphingomyelinase with varying degrees | – | low or no affinity for S1R | Formation of ceramide-enriched membrane domains (in words) [2]: inhibited ASM and the formation of ceramide-enriched membrane domains; Infection of Vero cells with SARS-CoV-2 (in words) (SARS-CoV-2 [3]): prevented Vero cells from being infected with SARS-CoV-2
10 | O=C1CCc2ccc(OCCCCN3CCN(c4cccc(Cl)c4Cl)CC3)cc2N1 [Aripiprazole, aripiprazole] | in vitro inhibit acid sphingomyelinase with varying degrees | effective preventive and curative treatments for reducing risk of death or intubation | low or no affinity for S1R | –
11 | O=C(CCCN1CCC(O)(c2ccc(Cl)cc2)CC1)c1ccc(F)cc1 [haloperidol] | – | – | – | Anti-inflammatory effect (in words) (glia activation): anti-inflammatory effect was observed
12 | CC[C@H]1OC(=O)[C@H](C)[C@@H](O[C@H]2C[C@@](C)(OC)[C@@H](O)[C@H](C)O2)[C@H](C)[C@@H](O[C@@H]2O[C@H](C)C[C@H](N(C)C)[C@H]2O)[C@](C)(O)C[C@@H](C)CN(C)[C@H](C)[C@@H](O)[C@]1(C)O [azithromycin] | – | – | – | Effect on mortality in patients hospitalized with COVID-19 (in words) (COVID-19): non-significant effect on mortality
13 | Cc1nc2n(c(=O)c1CCN1CCC(c3noc4cc(F)ccc34)CC1)CCCC2 [risperidone] | – | – | – | Anti-inflammatory effect (in words) (glia activation): anti-inflammatory effect was observed
14 | CCN(CCO)CCCC(C)Nc1ccnc2cc(Cl)ccc12 (stereo not drawn) [hydroxychloroquine] | – | – | – | Effect on mortality in patients hospitalized with COVID-19 (in words) (COVID-19): non-significant effect on mortality
15 | CN(C)CCCN1c2ccccc2CCc2ccccc21 [imipramine] | inhibited ASM; also recorded: in vitro inhibit acid sphingomyelinase with varying degrees | – | – | Formation of ceramide-enriched membrane domains (in words) [2]: inhibited ASM and the formation of ceramide-enriched membrane domains; Infection of Vero cells with SARS-CoV-2 (in words) (SARS-CoV-2 [3]): prevented Vero cells from being infected with SARS-CoV-2
